The record followed here is PubChem BioAssay (NCI).

Test systems include CCRF-CEM leukemia; HCT-15 colon; HS 578T breast; K-562 leukemia; RXF 393 renal; SNB-19 CNS; SW-620 colon; TK-10 renal; UACC-62 melanoma; RPMI-8226 leukemia.
Assay in all cases: inhibition of tumour cell growth, NCI panel, 48 h

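Growth conditions: 96-well plates. Treatment: test compound, 48 hours, 5 concentrations. Analysis: linear interpolation between bracketing concentrations; unreached endpoints set to highest concentration. The concentration for 50% growth inhibition is given as GI50. TGI marks complete inhibition of growth.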

On to `COC1(OC)CC(CO)(COc2cc(Cl)nc(N)n2)C1`, for which the TGI with CCRF-CEM leukemia, in the assay on HCT-15 colon, with HS 578T breast, with K-562 leukemia, with RXF 393 renal and in the assay with SNB-19 CNS was more than 100 µM in each case. The TGI in the assay on SW-620 colon, in the assay on TK-10 renal and in the assay with UACC-62 melanoma was more than 100 µM each time.
With `CC1(C)CC(=O)c2c(N)n[nH]c2C1`, the TGI in the assay with CCRF-CEM leukemia, in the assay with K-562 leukemia, with RPMI-8226 leukemia, in the assay on RXF 393 renal, in the assay on SNB-19 CNS and with SW-620 colon was more than 100 µM throughout. The TGI with UACC-62 melanoma is more than 100 µM.
As for `C=C1c2c(n(S(=O)(=O)c3ccccc3)c3ccccc23)[C@@]2(C(=O)OC)CC3C=CC2N1C3`, the TGI in the assay with CCRF-CEM leukemia, in the assay on HCT-15 colon, with K-562 leukemia, with RPMI-8226 leukemia, in the assay on RXF 393 renal and in the assay with SNB-19 CNS was more than 100 µM each time. For the same compound, the TGI with SW-620 colon, in the assay with TK-10 renal and with UACC-62 melanoma was more than 100 µM each time.
Take `CCCN=C1NC(C)=CSC(Nc2ccccc2)=C1C#N`: the TGI in the assay with HCT-15 colon, in the assay on K-562 leukemia, with RPMI-8226 leukemia, in the assay with RXF 393 renal, in the assay with SNB-19 CNS and in the assay on SW-620 colon was more than 100 µM throughout. In addition, the TGI in the assay with TK-10 renal and in the assay with UACC-62 melanoma was more than 100 µM throughout.
With `O/N=C1\C/C(=N\O)c2c(Br)sc(Br)c21`, the TGI in the assay with CCRF-CEM leukemia is 37.3 µM; in the assay with HCT-15 colon, 41.7 µM; in the assay with HS 578T breast, 30.9 µM; in the assay with K-562 leukemia, more than 100 µM; with SW-620 colon it was 72.7 µM; in the assay on TK-10 renal, more than 100 µM. This compound also showed a TGI with UACC-62 melanoma of more than 100 µM.
`Oc1ccc(-c2nc3cc(C(F)(F)F)ccc3s2)cc1`: the TGI is 27.8 µM with CCRF-CEM leukemia; 22.1 µM in the assay with HCT-15 colon; more than 100 µM with K-562 leukemia; 35.4 µM in the assay with RPMI-8226 leukemia; 33.2 µM in the assay with RXF 393 renal; 31.4 µM with SNB-19 CNS. Further, the TGI is 40.2 µM in the assay on SW-620 colon, 33.1 µM in the assay on TK-10 renal and 27.2 µM in the assay with UACC-62 melanoma.
Regarding `CCCCCCc1ccc(CCCCCCCC(=O)O)o1`, the TGI is more than 100 µM in the assay on CCRF-CEM leukemia; more than 100 µM with HCT-15 colon; 71.6 µM in the assay on K-562 leukemia; more than 100 µM with RPMI-8226 leukemia; more than 100 µM with SNB-19 CNS; more than 100 µM in the assay with SW-620 colon.
As for `O=S(=O)(O)c1cc(S(=O)(=O)O)c2cc(N=Nc3ccc(N=Nc4ccc(/C=C/c5ccc(N=[N+]([O-])c6ccc(/C=C/c7ccc(N=Nc8ccc(N=Nc9ccc%10cc(S(=O)(=O)O)cc(S(=O)(=O)O)c%10c9)cc8)cc7S(=O)(=O)O)c(S(=O)(=O)O)c6)cc5S(=O)(=O)O)c(S(=O)(=O)O)c4)cc3)ccc2c1`, the TGI was more than 100 µM in the assay on CCRF-CEM leukemia; more than 100 µM with HCT-15 colon; more than 100 µM with K-562 leukemia; more than 100 µM in the assay on RPMI-8226 leukemia; more than 78.7 µM in the assay with RXF 393 renal; more than 100 µM in the assay with SNB-19 CNS. Besides, the TGI in the assay on UACC-62 melanoma is 65.4 µM.
Take `COP(=O)(CP(=O)(OC)OCCC(C)CCC=C(C)C)OC` (configuration not stated): the TGI in the assay with CCRF-CEM leukemia, in the assay on HCT-15 colon, with K-562 leukemia, with RXF 393 renal, in the assay with SNB-19 CNS and in the assay on SW-620 colon was more than 100 µM each time. Besides, the TGI in the assay with TK-10 renal is more than 100 µM.
Turning to `CC(=O)NC1C(OCc2ccccc2)OC(CO)C(O)C1OC(C)C(=O)NC(C(=O)NC(CCC(=O)NCCCNc1ccc([N+](=O)[O-])c2[nH]c3ccccc3c(=O)c12)C(N)=O)C(C)C` (configuration not stated), the TGI in the assay with CCRF-CEM leukemia, with HCT-15 colon, with HS 578T breast, in the assay on SNB-19 CNS, with SW-620 colon and in the assay with TK-10 renal was more than 100 µM in each case. Further, the TGI in the assay with UACC-62 melanoma is more than 100 µM.
In the case of `CC(=O)/C=C(/C)[O-].CC(=O)/C=C(/C)[O-].CC(=O)[CH-]C(C)=O.CC(=O)[CH-]C(C)=O.[Zr+4]`, the GI50 with CCRF-CEM leukemia, with K-562 leukemia, in the assay with RXF 393 renal, in the assay with SNB-19 CNS, in the assay with TK-10 renal and in the assay with UACC-62 melanoma was more than 100 µM each time. The TGI in the assay with CCRF-CEM leukemia, in the assay with K-562 leukemia, in the assay on RXF 393 renal, in the assay with SNB-19 CNS, with TK-10 renal and with UACC-62 melanoma was more than 100 µM each time.
For `CCSC12OC3(CCCCCN3C1=O)C1C(=O)N(c3ccccc3)C(=O)C12` (configuration not stated), the TGI with CCRF-CEM leukemia, in the assay with HCT-15 colon, in the assay with HS 578T breast, in the assay with K-562 leukemia, with RXF 393 renal and with SNB-19 CNS was more than 100 µM in each case. Further, the TGI in the assay on SW-620 colon, in the assay on TK-10 renal and in the assay with UACC-62 melanoma was more than 100 µM in each case.
As to `O=C1CCCC1CC(CN1CCOCC1)Sc1nnnn1-c1ccccc1` (configuration not stated), the TGI in the assay on CCRF-CEM leukemia, in the assay with K-562 leukemia, in the assay on RPMI-8226 leukemia, with RXF 393 renal, with SNB-19 CNS and in the assay with SW-620 colon was more than 100 µM in each case. For the same compound, the TGI in the assay with UACC-62 melanoma is more than 100 µM.
For the compound `CC1(C)CCC2=C(O1)c1ccccc1C(=Nc1ccc([N+](=O)[O-])cc1)C2=O`, the GI50 in the assay with CCRF-CEM leukemia is 19.6 µM. The TGI is 46.7 µM in the assay on CCRF-CEM leukemia; more than 100 µM in the assay with HCT-15 colon; more than 100 µM with HS 578T breast; more than 100 µM with K-562 leukemia; 32.7 µM with RXF 393 renal; 32.5 µM in the assay with SNB-19 CNS. Moreover, the figures for the TGI in the assay with SW-620 colon, in the assay on TK-10 renal and in the assay with UACC-62 melanoma were 29.6 µM, 32.6 µM and 30.9 µM, respectively.
`Clc1ccc(C2SCc3nc4ccccc4n32)cc1` (configuration not stated): the TGI was 78.9 µM with CCRF-CEM leukemia; more than 100 µM in the assay on HCT-15 colon; more than 100 µM with K-562 leukemia; 44.1 µM in the assay with RPMI-8226 leukemia; 77 µM in the assay on SNB-19 CNS; more than 100 µM in the assay on SW-620 colon. In addition, the TGI in the assay with TK-10 renal is more than 100 µM; in the assay on UACC-62 melanoma, 43.6 µM.
